Assay: gradient 5% acetonitrile 3 min, to 50% in 2 min, to 85% in 15 min, held 3 min, 100 µL/min
Details: column: Zorbax Extend-C18 2.1 x 50 mm; eluents: water / acetonitrile, 0.1% formic acid
How it was run: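 Pure standards were run in mixtures of ~100 molecules by HPLC coupled to a quadrupole time-of-flight mass spectrometer. The column was a Zorbax Extend-C18 (2.1 × 50 mm, 1.8 μm) at 100 μL/min, with water and acetonitrile each containing 0.1% formic acid, in positive and negative ionization mode. Dead and dwell volumes were 40 μL and 900 μL. Retention time was taken from computationally picked adduct peaks, each manually inspected, with data collected over 3 months.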

Row | Compound | RP-LC retention time [s]
1 | CCOC(=O)c1csc(NC(=O)CC[C@H]2NC(=O)c3ccccc3NC2=O)n1 | 648
2 | CCOc1ccc(-c2noc(Cn3cnc4c(cnn4-c4ccc(CC)cc4)c3=O)n2)cc1OC | 1070
3 | Cc1sc2ccn(C)c(=O)c2c1C(=O)NCc1ccc(Br)cc1 | 811
4 | Cn1nc(-c2nnc(-c3ccccc3F)o2)c2c1CCN(S(=O)(=O)c1cc(F)ccc1F)C2 | 928
5 | Cc1ccc(CNS(=O)(=O)c2ccc(-c3nnc(C4CC4)o3)o2)o1 | 816
6 | Cc1ccc(-c2noc(C3CCCN3C(=O)CNS(=O)(=O)c3ccc(Cl)cc3)n2)cc1 (configuration not stated) | 1030
7 | COc1cccc(NC(=O)Cc2csc3nc(-c4ccc(OC)c(OC)c4)cn23)c1 | 780
8 | CCN(CC)CCNC(=O)CN1C(=O)C2CCCCN2c2ccc(S(=O)(=O)N3CCCC3)cc21 (configuration not stated) | 633
9 | CCCn1cc(CCNS(=O)(=O)c2ccc(C)cc2)c2cccnc21 | 841
10 | COc1cc2c(cc1OC)C1C(C(=O)NCCN3CCOCC3)c3ccccc3C(=O)N1CC2 (configuration not stated) | 590
11 | COc1ccc(S(=O)(=O)N2CCC(c3noc(-c4cccnc4)n3)C2)cc1 (configuration not stated) | 793
12 | CC(C)c1noc(-c2cccnc2N2CCCN(Cc3ccccc3Cl)CC2)n1 | 723
13 | CCc1nc2cc(-c3noc(-c4ccc(C)c(F)c4)n3)ccc2o1 | 1350
14 | COc1ccc(Cl)cc1C(=O)N1CCN(c2cc(C)nc(N3CCCC3)n2)CC1 | 665
15 | CCC(=O)NCCc1csc(C2CCCN(C(=O)C3(c4ccccc4)CC3)C2)n1 (configuration not stated) | 736
16 | CCN1c2ccccc2C(=O)NC12CCN(C(=O)c1ccccc1OC)CC2 | 732
17 | Cc1ccc(C(=O)CC2(O)C(=O)Nc3ccccc32)c(C)c1 (configuration not stated) | 759
18 | CCn1ccc2oc(C)c(C(=O)NCc3ccccc3Br)c2c1=O | 1020
19 | Cc1ccc(Nc2nc(-c3ccc(Cl)cc3)cs2)nc1 | 1050
20 | CCN(CC)C(=O)c1ccc(-c2nc3cc(NS(=O)(=O)c4ccc(Cl)cc4)ccc3n2C)cc1 | 735
21 | CSc1ccc(-c2nc3ccc(Cl)cn3c2NC2CCCCC2)cc1 | 926
22 | Cc1ccccc1NS(=O)(=O)c1cc2c(s1)CCN(C(=O)C1CCC1)C2 | 832
23 | O=C(O[C@@H]1CN2CCC1CC2)N1CCc2ccccc2C1c1ccccc1 (some centres not stated) | 757

Row | Compound | RP-LC retention time [s]
24 | CCS(=O)(=O)N1CC(=O)N(c2ccc(C)cc2)C(C)(C(=O)NC2CCCCCCC2)C1 (configuration not stated) | 979
25 | CN1CCc2ccccc2Cc2[nH]c3ccccc3c2CC1 | 738
26 | c1ccc(-c2nc3ccccc3nc2N2CCOCC2)cc1 | 995
27 | Cn1nc(-c2nnc(-c3ccccc3F)o2)c2c1CCN(S(=O)(=O)c1ccc(Cl)s1)C2 | 1010
28 | Cc1nn2c(S(=O)(=O)N3CCOCC3)c(C)nc2s1 | 656
29 | CCCCNC(=O)C1CCCN(c2cc(=O)n(C)c(=O)n2C)C1 (configuration not stated) | 641
30 | CCC1(O)CCC12CCN(C(=O)c1ccoc1)CC2 (configuration not stated) | 691
31 | CCN1CCCC1CNC(=O)c1ccc2nc(Cc3ccccc3)oc2c1 (configuration not stated) | 650
32 | CSc1nc2nc3c(cn2n1)C(=O)CC(C)C3 (configuration not stated) | 705
33 | Cc1nnc(-c2ccc3ccn(CC(=O)NC4CCCCCC4)c3c2)o1 | 813
34 | COc1ccc(-c2nnc(COc3cccc(NC(=O)c4cncc(Br)c4)c3)o2)cc1 | 914
35 | CCOCCCNC(=O)N1CCN(c2nc3ccccc3n(Cc3ccccc3)c2=O)CC1 | 914
36 | CC(C)CCNC(=O)C1CCN(C(=O)c2cc(-c3ccncc3)n[nH]2)CC1 | 591
37 | CCOc1cccc(-c2noc(-c3nn(-c4cccc(F)c4)ccc3=O)n2)c1 | 978
38 | COc1ccc(CNC2=NCCNC23CCN(S(=O)(=O)c2cc(C)c(C)cc2C)CC3)cc1 | 794
39 | Cc1nc(-c2cccc(F)c2)sc1C(=O)NC(C)C | 936
40 | CS(=O)(=O)N[C@H]1C[C@@H]2C[C@H]1CN2C(=O)c1cccc(Cl)c1 | 672
41 | Cc1nc([C@@H]2CN(C(=O)c3ccc(Cl)s3)C[C@H]2C(N)=O)n[nH]1 | 608
42 | CCOC(=O)C(=O)NCc1nc(COc2ccc(OC)cc2)no1 | 716
43 | COc1ccc(-c2noc(N3CCC(C(=O)N4CCN(C5CCCCC5)CC4)CC3)n2)cc1OC | 632
44 | CCn1c(=O)n(CC(=O)NCCC(C)C)c(=O)c2cnc(-c3ccccc3)nc21 | 678
45 | CCn1cc(C(=O)Nc2ccc(C)c(C)c2)c2cccnc21 | 937
46 | Cc1cc2nc(C(=O)Nc3ccc(C)c(C)c3)cc(C)n2n1 | 1090

Row | Compound | RP-LC retention time [s]
47 | Cc1nc(-c2noc(-c3ccc(F)cc3)n2)cn1CC(=O)NCc1ccc(Cl)cc1 | 896
48 | Cc1noc(-c2ccc(OC3CN(S(=O)(=O)c4cccc5nsnc45)C3)cc2)n1 | 932
49 | O=C(CCNc1c(-c2cccc(F)c2)nc2cnccn12)NCc1ccco1 | 680
50 | COCCNC(=O)N(C)CCc1noc(COc2ccc(Cl)cc2)n1 | 747
51 | Cc1ccc(C2=NC3(CCN(C(=O)c4ccn[nH]4)CC3)ON2)cc1 | 680
52 | CC1=C(c2ccccc2)S(=O)(=O)N=C1N1CCCN(C(=O)COc2ccccc2)CC1 | 836
53 | CC1=NS(=O)(=O)N(C)C=C1C(=O)OCc1nc(-c2ccc(C)cc2)no1 | 977
54 | O=C(Cn1ccn2nc(-c3ccc(F)cc3)c(CO)c2c1=O)N1CCCc2ccccc21 | 899
55 | CC(=O)N(C)c1ccc(NC(=O)c2c(-c3ccccc3Cl)noc2C)cc1 | 774
56 | Cc1cc(C)c(CNC(=O)C2CCN(c3cncnc3N3CCN(C)CC3)CC2)c(C)c1 | 598
57 | O=C(CSCc1ccccc1)N1CC(c2nc3ccccc3[nH]2)C1 | 573
58 | CCn1cc(-c2nc(C(=O)Nc3ccc(C(=O)OC)cc3)cs2)c2cccnc21 | 1080
59 | O=S(=O)(c1cccc(-c2cn3cc(Cl)ccc3n2)c1)N1CCCC1 | 805
60 | CCNS(=O)(=O)c1cccnc1Nc1cccc(F)c1 | 963
61 | COC(=O)c1ccc2c(=O)n(-c3cccc(C)c3)c(N3CCSC3)nc2c1 | 1130
62 | CCc1nnc(-c2cn(CC(=O)NCCCc3ccccc3)c3ccccc23)o1 | 877
63 | CCOC(=O)c1noc2nc(C)nc(NCCc3ccc(Cl)cc3)c12 | 1210
64 | O=C(Nc1cccc(OCc2nnc(-c3ccccc3)o2)c1)C1COc2ccccc2O1 (configuration not stated) | 1010
65 | O=C(Nc1ccc(F)cc1F)c1c(O)c2cccnc2n(-c2cccc(F)c2)c1=O | 918
66 | O=C1CCCN1Cc1noc(-c2ccccc2)n1 | 731
67 | Cc1oc(C2CCN(C(=O)Nc3cccc(Cl)c3C)CC2)nc1C(=O)N(C)C | 728
